{"source": "the supplement of paper PMC10307832", "data": [{"compound": "Cn1c(=O)n(-c2ccc(C(C)(C)C#N)cc2)c2c3cc(-c4cnc5ccccc5c4)ccc3ncc21 [Dactolisib] + COc1cccc2cc(-c3nc([C@H]4CC[C@H](C(=O)O)CC4)n4ncnc(N)c34)[nH]c12 [OSI-027] (partner 0.5 µM)", "experiment": "relative viability (nuclei count vs DMSO), 5 days (fraction); higher = more cells survive", "conditions": "first compound 0.002 µM", "how_it_was_run": "(§1)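 Lung cancer cell lines, seeded in 1536-well plates, were treated the following day by pin tool with a single drug or with five library-drug doses (not always all listed) in √10 steps on top of a fixed anchor-drug dose. Cells were fixed and nuclei stained in one step after 5 days, and nuclei were counted. Relative viability is the nuclei count for treated wells divided by that for vehicle wells, reported as medians of duplicate plates.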", "values": [{"cell line": "NCI-H1650", "relative viability": 0.775}, {"cell line": "NCI-H1993", "relative viability": 0.596}, {"cell line": "SK-LU-1", "relative viability": 0.277}, {"cell line": "NCI-H838", "relative viability": 0.424}, {"cell line": "LCLC-103H", "relative viability": 0.509}, {"cell line": "NCI-H520", "relative viability": 0.285}, {"cell line": "NCI-H2126", "relative viability": 0.92}, {"cell line": "EMC-BAC-2", "relative viability": 0.395}, {"cell line": "NCI-H2085", "relative viability": 0.737}, {"cell line": "HCC-366", "relative viability": 0.924}, {"cell line": "NCI-H1666", "relative viability": 1.04}, {"cell line": "NCI-H596", "relative viability": 0.694}, {"cell line": "LK-2", "relative viability": 0.176}, {"cell line": "NCI-H2087", "relative viability": 1.05}, {"cell line": "NCI-H1648", "relative viability": 0.246}, {"cell line": "SK-MES-1", "relative viability": 0.612}, {"cell line": "H3255", "relative viability": 0.724}, {"cell line": "COR-L23", "relative viability": 0.917}, {"cell line": "COR-L 105", "relative viability": 0.776}, {"cell line": "LOU-NH91", "relative viability": 0.701}, {"cell line": "ChaGo-K-1", "relative viability": 0.538}, {"cell line": "NCI-H2170", "relative viability": 0.763}, {"cell line": "NCI-H2405", "relative viability": 0.67}, {"cell line": "HOP-62", "relative viability": 0.986}, {"cell line": "NCI-H522", "relative viability": 0.719}, {"cell line": "SW 900", "relative viability": 0.495}, {"cell line": "NCI-H441", "relative viability": 0.915}, {"cell line": "NCI-H1395", "relative viability": 0.666}, {"cell line": "NCI-H1793", "relative viability": 0.317}]}, {"compound": "Cn1c(=O)n(-c2ccc(C(C)(C)C#N)cc2)c2c3cc(-c4cnc5ccccc5c4)ccc3ncc21 [Dactolisib] + COc1cccc2cc(-c3nc([C@H]4CC[C@H](C(=O)O)CC4)n4ncnc(N)c34)[nH]c12 [OSI-027] (partner 0.5 µM)", "experiment": "relative viability (nuclei count vs DMSO), 5 days (fraction); higher = more cells survive", "conditions": "first compound 0.006325 µM", "how_it_was_run": "as §1", "values": [{"cell line": "NCI-H2342", "relative viability": 0.67}, {"cell line": "NCI-H1623", "relative viability": 0.431}, {"cell line": "NCI-H727", "relative viability": 0.435}, {"cell line": "NCI-H1650", "relative viability": 0.598}, {"cell line": "NCI-H1993", "relative viability": 0.496}, {"cell line": "SK-LU-1", "relative viability": 0.42}, {"cell line": "NCI-H838", "relative viability": 0.477}, {"cell line": "LCLC-103H", "relative viability": 0.5}, {"cell line": "NCI-H520", "relative viability": 0.303}, {"cell line": "NCI-H2126", "relative viability": 0.733}, {"cell line": "EMC-BAC-2", "relative viability": 0.439}, {"cell line": "NCI-H2085", "relative viability": 0.609}, {"cell line": "HCC-366", "relative viability": 0.863}, {"cell line": "NCI-H1666", "relative viability": 0.895}, {"cell line": "NCI-H596", "relative viability": 0.653}, {"cell line": "LK-2", "relative viability": 0.205}, {"cell line": "NCI-H2087", "relative viability": 0.572}, {"cell line": "NCI-H1648", "relative viability": 0.286}, {"cell line": "SK-MES-1", "relative viability": 0.601}, {"cell line": "H3255", "relative viability": 0.469}, {"cell line": "COR-L23", "relative viability": 0.796}, {"cell line": "COR-L 105", "relative viability": 0.619}, {"cell line": "LOU-NH91", "relative viability": 0.716}, {"cell line": "ChaGo-K-1", "relative viability": 0.528}, {"cell line": "NCI-H2170", "relative viability": 0.639}, {"cell line": "NCI-H2405", "relative viability": 0.652}, {"cell line": "HOP-62", "relative viability": 0.881}, {"cell line": "NCI-H522", "relative viability": 0.728}, {"cell line": "SW 900", "relative viability": 0.419}, {"cell line": "NCI-H441", "relative viability": 0.725}, {"cell line": "NCI-H1395", "relative viability": 0.646}, {"cell line": "NCI-H1793", "relative viability": 0.26}]}, {"compound": "Cn1c(=O)n(-c2ccc(C(C)(C)C#N)cc2)c2c3cc(-c4cnc5ccccc5c4)ccc3ncc21 [Dactolisib] + COc1cccc2cc(-c3nc([C@H]4CC[C@H](C(=O)O)CC4)n4ncnc(N)c34)[nH]c12 [OSI-027] (partner 0.5 µM)", "experiment": "relative viability (nuclei count vs DMSO), 5 days (fraction); higher = more cells survive", "conditions": "first compound 0.02 µM", "how_it_was_run": "as §1", "values": [{"cell line": "NCI-H2342", "relative viability": 0.572}, {"cell line": "NCI-H1623", "relative viability": 0.46}, {"cell line": "NCI-H727", "relative viability": 0.538}, {"cell line": "NCI-H1650", "relative viability": 0.593}, {"cell line": "NCI-H1993", "relative viability": 0.615}, {"cell line": "SK-LU-1", "relative viability": 0.362}, {"cell line": "NCI-H838", "relative viability": 0.317}, {"cell line": "LCLC-103H", "relative viability": 0.465}, {"cell line": "NCI-H520", "relative viability": 0.308}, {"cell line": "NCI-H2126", "relative viability": 0.687}, {"cell line": "EMC-BAC-2", "relative viability": 0.405}, {"cell line": "NCI-H2085", "relative viability": 0.663}, {"cell line": "HCC-366", "relative viability": 0.889}, {"cell line": "NCI-H1666", "relative viability": 0.864}, {"cell line": "NCI-H596", "relative viability": 0.692}, {"cell line": "LK-2", "relative viability": 0.213}]}]}
